Reference: patent publication US5656721A, “Peptide derivatives” (Sandoz Ltd., priority 1986, dated 1997)
Read-outs that look alike come from different tables or passages of the source. Starred links: 1 amine or outer side, 2 acyl side, 3 side chain; linkers in the order of their positions; H or OH if unused. Positions of bridges follow the written chain, without caps; N, C: chain ends. Non-standard residues stand in square brackets, D forms with d. Residues, ends and D or L forms follow the SMILES beside them. X1 = O=C([C@@H](Cc1ccccc1)N(C[C@@]1(O)OC[C@@H](O)[C@@H](O[C@H]2O[C@H](CO)[C@@H](O)[C@H](O)[C@H]2O)[C@@H]1O)[*:1])[*:2]; X3 = O=C([C@@H](Cc1ccccc1)N(C[C@@]1(O)OC[C@@H](O)[C@@H](O)[C@@H]1O)[*:1])[*:2]; X2 = O=C([C@H](CS[*:3])N(C[C@@]1(O)OC[C@@H](O)[C@@H](O)[C@@H]1O)[*:1])[*:2]; Thr(ol) = C[C@@H](O)[C@H](N)CO

Columns and labels:
[1] = test system: calcium level in the blood; test: Hypocalcemic activity, calcium level in the blood after i.v. administration; format: in vivo; settings: dogs, 5 μg/kg
Text: The sugar derivatives of calcitonin and of calcitonin analogues or derivatives according to the invention, more especially the derivatives of formula X reduce the calcium plasma level. Moreover, they are functional antagonists of the parathormone, and effect a positive calcium balance in the bones. The hypocalcemic activity of the new compounds may be measured in known manner, e.g. according to the method of M. Azria et al., reported in the Calcitonin 1984 Symposium, 24th October, Milan and published as "Short Communication" in "Current Clinical Practice Series" No. 42, Excerpta Medica 1986, page 104. In this method, a Ca^2+ -ion selective electrode is used, so that the content of calcium ions in the blood of young rabbits or dogs may be continuously measured. The compounds are administered i.v. at a dosage of from about 0.1 to about 10 micrograms/kg, e.g. conforming to ca. 1 international unit per kg. […]
It has for example been determined that each of the compounds of examples 37 and 38 have a duration of action that is much longer than with the unmodified peptide, when administered i.v. to dogs (5 μg/kg).

[2] = test system: GH level in the serum; format: in vivo, rats
Procedure: Male rats are decapitated and blood is collected 1 hour after administering the GH secrection inhibiting compound in several logarithmically spaced doses. The GH level in the serum is determined means of RIA. In this test, these compounds of the invention are active at doses from about 0.02 to about 30 microgram/kg s.c.

[3] = Absorption on oral administration, plasma levels by RIA; format: in vivo, OFA rats; settings: OFA, rat, 10 mg/kg; for level at 0.25 h: 15 mins., read-out: Rat plasma levels following oral administration, 15 mins.; for level at 0.5 h: 30 mins., read-out: Rat plasma levels following oral administration, 30 mins.; for level at 1 h: 60 mins., read-out: Rat plasma levels following oral administration, 60 mins.
Procedure: Improved absorption on oral administration may be detected for the compounds of the invention as follows:
The compound of the invention and the unmodified analogue are administered orally to OFA rats (e.g. 10 mg/kg). After definite periods of time, e.g. 15, 30 and 60 minutes, blood samples are collected, These are analysed for their drug content by e.g. RIA.

[4] = Elimination through bile and urine in anaesthetized cannulated rats after s.c. administration; settings: male, rat, in vivo, sc, 10 microgram/kg
Procedure: Additionally the compounds of the invention advantageously are eliminated to a greater extent through the kidneys. This may be observed in standard tests.
Fasted Male rats (225-375 g) are administered orally with water (50 ml/kg). After 30 minutes the animals are anaesthetized with e.g. Inactin (100 mg/kg i.p.). The bile duct and bladder are cannulated. Both V. jugularis are exposed. In one vein an infusion of glucose 5% with ethanol 1% is administered (5 ml/hr) to stimulate diuresis. The other vein is used to take blood samples (0.5 ml) every hour over 4 hours.
The compound of the invention and the unmodified peptide is administered s.c. at a dose of from about 10 to about 1000 microgram/Kg. The concentration of the compound is determined in conventional manner e.g. by RIA.
In the above test for example the following results have been obtained with the example 2 compound and octreotide at a dose of 10 microgram/kg: […]

[5] = Bioavailability test, oral or intravenous administration, blood detection by radioimmunoassay; format: in vivo, dogs
Text: The compounds of the invention may be compared with the unmodified peptides in standard bioavailability tests.
The compounds of the invention, for example, may be detected in the blood plasma for a longer period after administration than the unmodified peptides, as indicated in standard bioavailability experiments.
The compounds of the invention and the unmodified peptide may be administered to for example dogs in a single dose sufficient to produce a therapeutic effect by oral or intravenous administration.
Doses used are those which permit the peptide or a metabolite thereof to be detected in the blood. Detection may be effected in conventional manner, e.g. by radioimmunoassay.

[6] = test system: GH (growth hormone) secretion; test: GH concentration in blood of fasted rhesus monkeys after p.o. administration; format: in vivo; settings: for duration of GH lowering effect: p.o., example 2 at 0.1 mg/kg, lowering by at least 50 per cent
Procedure: Compounds of the invention which inhibit GH (growth hormone) secretion, especially the compounds of formula VIII, and more especially compounds of formula VIII a to f, and reduce the GH concentrations in the blood, may be tested as follows: Fasted rhesus monkeys (at least 5 monkeys) in primate chairs receive the compound of the invention in a piece of banana as vehicle. The compounds are administered at a dose of from about 0.1 mg/kg to about 10 mg/kg p.o. Blood is taken from the […] via a catheter. The GH concentration in the blood is measured by RIA (radio immunoassay).

[7] = test system: gastric acid secretion; test: Gastric acid secretion in fasted rats with stomach fistula; format: in vivo; settings: for duration of increased stomach pH / pH of the stomach juice reached: by stomach tube
Procedure: The activity of these compounds is observed in e.g. the following test: GH secretion inhibiting compounds of the invention are administered to fasted rats with fistula implanted in their stomach in doses from about 0.05 mg/kg to about 5 mg/kg by stomach tune. After 1 hour the fistula is opened. The stomach Juice is collected in 30 minute periods. The collected volumes are registered and the acid concentration determined.

[8] = test system: GH level in the serum; test: GH-reducing activity in male rats having oestradiol implants; format: in vivo; settings: oestradiol-implanted male rats
Procedure: The GH-reducing activity of these compounds is also observed after oral application to male rats having oestradiol implants. In this test there are relatively small variations in the GH level, The test is carried out as follows:
A loop (length 50 mm .0. 3 mm) of silastic with 50 mg of oestradiol is implanted under ether anaesthesis under the dorsal skin of male rats which have a weight of ca. 300 g. At various times (1 to 6 months later), these animals are used repeatedly for tests. The test substance is administered either s.c. or orally.
Directly before, as well as at various times after administration of the substance, ca. 0.8 ml of blood is removed from the retro-orbital plexus. It is centrifuged and the GH level in the serum is determined by RIA.

[9] = s.c., male rats, 1 hour after administration

**Q.** Which “duration of action compared with the unmodified peptide” value [1] does the source give for “N^α -isocaproyl-des(1-4)-[Ala^7,Nε-(1-deoxyfructosyl)-Lys^11,1 8 ]salmon Calcitonin [Example 37]” here?
**A.** The value was “much longer”.

**Q.** And the “reduction in the calcium level in the blood after 6 hours” value [1]?
**A.** Its value is “still as pronounced as after 3 hours”.

**Q.** For “N^α -isocaproyl-des-(1-4)-[Ala^7, N^κ -(α-D-glucosyl-(1-4)-deoxyfructosyl)-Lys^11,18 ]salmon Calcitonin [Example 38]”, which “duration of action compared with the unmodified peptide” value [1] is on record?
**A.** The value was “much longer”.

**Q.** What about the “reduction in the calcium level in the blood after 6 hours” value [1] of the same compound?
**A.** The value was “still as pronounced as after 3 hours”.

**Q.** For C[C@H](N)C(=O)NCC(=O)N[C@H]1CSSC[C@@H](C(=O)O)NC(=O)[C@H](CO)NC(=O)[C@H]([C@@H](C)O)NC(=O)[C@H](Cc2ccccc2)NC(=O)[C@H]([C@@H](C)O)NC(=O)[C@H](CCCCN)NC(=O)[C@H](Cc2c[nH]c3ccccc23)NC(=O)[C@H](Cc2ccccc2)NC(=O)[C@H](Cc2ccccc2)NC(=O)[C@H](CC(N)=O)NC(=O)[C@H](CCCCN)NC1=O [natural stomatostatin, reference compound], which “ID50 (amount required to lower the GH content by 50%)” value [2, 9] is on record?
**A.** Its value is 93 microgram/kg.

**Q.** Which level at 0.25 h [3] does the source give for CC[C@H](C)[C@@H]1NC(=O)[C@H](Cc2ccc(O)cc2)NC(=O)[C@@H](N)CSSC[C@@H](C(=O)N2CCC[C@H]2C(=O)N[C@@H](CC(C)C)C(=O)NCC(N)=O)NC(=O)[C@H](CC(N)=O)NC(=O)[C@H](CCC(N)=O)NC1=O [oxytocin, reference compound] here?
**A.** Its level at 0.25 h is 7.53 ng/mL.

**Q.** And the level at 0.5 h [3]?
**A.** Its level at 0.5 h is 3.6 ng/mL.

**Q.** And the level at 1 h [3]?
**A.** The level at 1 h was 2.55 ng/mL.

**Q.** With C[C@@H](O)[C@@H]1NC(=O)[C@H](CCCCN)NC(=O)[C@@H](Cc2c[nH]c3ccccc23)NC(=O)[C@H](Cc2ccccc2)NC(=O)[C@@H](NC(=O)[C@@H](Cc2ccccc2)NC[C@@]2(O)OC[C@@H](O)[C@@H](O[C@H]3O[C@H](CO)[C@@H](O)[C@H](O)[C@H]3O)[C@@H]2O)CSSC[C@@H](C(=O)N[C@H](CO)[C@@H](C)O)NC1=O [Example 2, N^α -[α-glucosyl(1-4)-dioxyfructosyl)-SMS] (H-[X1]CF[dW]KTC[Thr(ol)]; disulfide 2-7) as the compound, how does the dose excreted ([4]; Percentage eliminated through Bile) read?
**A.** Its dose excreted is 1.6%.

**Q.** And the dose excreted ([4]; Percentage eliminated through Urine)?
**A.** The dose excreted was 36%.

**Q.** What about the elimination half-life ([5]; intravenous administration) of the same compound?
**A.** Its elimination half-life is “about 2,3 hours”.

**Q.** What about the “blood concentration on oral administration compared with octreotide” value ([5]; oral administration, relative to octreotide) of the same compound?
**A.** Its value is “ten fold higher”.

**Q.** And the “absolute bioavailability on the basis of the AUC, relative to octreotide” value ([5]; orally and intravenously administered, relative to octreotide)?
**A.** The value was 5 times.

**Q.** What about the “lowering of GH secretion” value ([6]; 0.1 mg/kg p.o.) of the same compound?
**A.** The value was “at least 50 per cent”.

**Q.** What about the “duration of GH lowering effect” value [6] of the same compound?
**A.** The value was over 10 h.

**Q.** And the “ID50 (amount required to lower the GH content by 50%)” value [2, 9]?
**A.** Its value is 0.190 microgram/kg.

**Q.** What about the “duration of increased stomach pH” value [7] of the same compound?
**A.** The value was 3,5 hours.

**Q.** What about the “pH of the stomach juice reached” value [7] of the same compound?
**A.** Its value is 6-8 pH.

**Q.** What about the “activity relative to cimetidine” value ([7]; compared with cimetidine) of the same compound?
**A.** Its value is “at least 60 times”.

**Q.** Which “ID50 (amount required to lower the GH content by 50%)” value ([2]; rat, in vivo, sc) does the source give for C[C@@H](O)[C@@H]1NC(=O)[C@H](CCCCN)NC(=O)[C@@H](Cc2c[nH]c3ccccc23)NC(=O)[C@H](Cc2ccccc2)NC(=O)[C@@H](NC(=O)[C@@H](Cc2ccccc2)NC(=O)[C@H]2OC(O)[C@H](O)[C@@H](O)[C@@H]2O)CSSC[C@@H](C(=O)N[C@H](CO)[C@@H](C)O)NC1=O (stereo partly shown) [Example 21] here?
**A.** The value was 0.3 microgram/kg.

**Q.** With C[C@@H](O)[C@@H]1NC(=O)[C@H](CCCCN)NC(=O)[C@@H](Cc2c[nH]c3ccccc23)NC(=O)[C@H](Cc2ccccc2)NC(=O)[C@@H](NC(=O)[C@@H](Cc2ccccc2)NC[C@@]2(O)OC[C@@H](O)[C@@H](O)[C@@H]2O)CSSC[C@@H](C(=O)N[C@H](CO)[C@@H](C)O)NC1=O [Example 1] (H-[X3]CF[dW]KTC[Thr(ol)]; disulfide 2-7) as the compound, how does the “ID50 (amount required to lower the GH content by 50%)” value ([2]; rat, in vivo, sc) read?
**A.** The value was 0.045 microgram/kg.

**Q.** What does the source list for CC[C@H](C)[C@@H]1NC(=O)[C@H](Cc2ccc(O)cc2)NC(=O)[C@@H](NC[C@@]2(O)OC[C@@H](O)[C@@H](O)[C@@H]2O)CSSC[C@@H](C(=O)N2CCC[C@H]2C(=O)N[C@@H](CC(C)C)C(=O)NCC(N)=O)NC(=O)[C@H](CC(N)=O)NC(=O)[C@H](CCC(N)=O)NC1=O [Example 44, [N-deoxy-fructosyl-Cys^1]-oxytocin] (H-[X2]YIQNCPLG-NH2; disulfide 1-6; C-terminus assumed)?
**A.** level at 0.25 h [3]: 11.8 ng/mL; level at 0.5 h [3]: 6.98 ng/mL; level at 1 h [3]: 3.98 ng/mL

**Q.** Which dose excreted ([4]; rats, 10 microgram/kg s.c., read-out: Percentage eliminated through Bile) does the source give for C[C@@H](O)[C@@H]1NC(=O)[C@H](CCCCN)NC(=O)[C@@H](Cc2c[nH]c3ccccc23)NC(=O)[C@H](Cc2ccccc2)NC(=O)[C@@H](NC(=O)[C@H](N)Cc2ccccc2)CSSC[C@@H](C(=O)N[C@H](CO)[C@@H](C)O)NC1=O [Octreotide, reference compound] here?
**A.** Its dose excreted is 22%.

**Q.** What about the dose excreted ([4]; rats, 10 microgram/kg s.c., read-out: Percentage eliminated through Urine) of the same compound?
**A.** The dose excreted was 19%.

**Q.** What about the ID50 p.o. [8] of the same compound?
**A.** The ID50 p.o. was 1400 microgram/kg.

**Q.** And the half-life ([5]; dog, blood, intravenous administration, read-out: elimination half-life (converted))?
**A.** Its half-life is about 30 min.

**Q.** What about the “duration of GH lowering effect” value [6] of the same compound?
**A.** Its value is 5 h.

**Q.** What about the “duration of increased stomach pH” value [7] of the same compound?
**A.** The value was 2 hours.

**Q.** What about the “pH of the stomach juice reached” value [7] of the same compound?
**A.** The value was 6-7 pH.
